# Reference: US20210300924A1, “5-[6-[[3-(4,5,6,7-TETRAHYDROPYRAZOLO[4,3-C]PYRIDIN-1-YL)AZETIDIN-1-YL]METHYL]MORPHOLIN-4-YL]QUINOLINE-8-CARBONITRILE DERIVATIVES AND SIMILAR COMPOUNDS AS TLR7-9 ANTAGONISTS FOR TREATING SYSTEMIC LUPUS ERYTHEMATOSUS” (Hoffmann-La Roche Inc., priority 2018, published 2021)
# Target: T1, human TLR8 (Homo sapiens, UniProt Q9NR97)
# T1 construct: host or cells: HEK293 (HEK-Blue hTLR8)
# T1 sequence (Q9NR97 27-1041): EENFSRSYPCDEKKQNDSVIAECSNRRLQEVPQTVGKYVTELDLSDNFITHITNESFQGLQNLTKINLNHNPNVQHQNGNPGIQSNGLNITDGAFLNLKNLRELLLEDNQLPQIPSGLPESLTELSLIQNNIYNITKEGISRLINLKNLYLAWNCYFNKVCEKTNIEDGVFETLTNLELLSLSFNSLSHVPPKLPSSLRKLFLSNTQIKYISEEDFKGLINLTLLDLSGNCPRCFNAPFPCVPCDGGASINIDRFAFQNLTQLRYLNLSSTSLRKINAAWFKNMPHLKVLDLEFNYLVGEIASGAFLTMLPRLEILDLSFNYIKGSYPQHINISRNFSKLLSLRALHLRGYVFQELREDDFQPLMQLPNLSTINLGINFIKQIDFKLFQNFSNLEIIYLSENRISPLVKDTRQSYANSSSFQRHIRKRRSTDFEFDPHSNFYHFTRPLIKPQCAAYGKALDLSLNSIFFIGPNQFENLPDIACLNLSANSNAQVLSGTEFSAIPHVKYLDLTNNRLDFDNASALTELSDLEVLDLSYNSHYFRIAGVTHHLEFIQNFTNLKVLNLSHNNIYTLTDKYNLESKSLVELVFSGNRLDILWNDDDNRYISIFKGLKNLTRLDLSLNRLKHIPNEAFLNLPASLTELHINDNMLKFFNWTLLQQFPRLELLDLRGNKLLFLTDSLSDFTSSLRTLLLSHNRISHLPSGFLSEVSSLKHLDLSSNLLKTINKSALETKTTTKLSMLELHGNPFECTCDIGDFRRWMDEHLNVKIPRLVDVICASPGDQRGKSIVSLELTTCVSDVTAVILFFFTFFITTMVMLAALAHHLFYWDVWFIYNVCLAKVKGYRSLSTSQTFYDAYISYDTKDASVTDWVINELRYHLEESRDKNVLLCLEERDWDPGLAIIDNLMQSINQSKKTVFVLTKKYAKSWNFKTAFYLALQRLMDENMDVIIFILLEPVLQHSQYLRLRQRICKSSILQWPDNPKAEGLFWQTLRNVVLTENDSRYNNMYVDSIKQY
# Experiment: HEK293-Blue-hTLR-8 cells assay
# Assay type: cell-based
# Conditions: HEK293-Blue-hTLR8 cells, R848 stimulation, 20 hrs, SEAP reporter; read-out: HEK/hTLR8 IC50
# Source text: A stable HEK293-Blue-hTLR-8 cell line was purchased from InvivoGen (Cat. #: hkb-htlr8, San Diego, Calif., USA). These cells were originally designed for studying the stimulation of human TLR8 by monitoring the activation of NF-κB. A SEAP (secreted embryonic alkaline phosphatase) reporter gene was placed under the control of the IFN-β minimal promoter fused to five NF-κB and AP-1-binding sites. The SEAP was induced by activating NF-κB and AP-1 via stimulating HEK-Blue hTLR8 cells with TLR8 ligands. Therefore the reporter expression was declined by TLR8 antagonist under the stimulation of a ligand, such as R848, for incubation of 20 hrs. The cell culture supernatant SEAP reporter activity was determined using QUANTI-Blue™ kit (Cat. #: rep-qb1, Invivogen, San Diego, Ca, USA) at a wavelength of 640 nm, a detection medium that turns purple or blue in the presence of alkaline phosphatase.
# HEK293-Blue-hTLR8 cells were incubated at a density of 250,000-450,000 cells/mL in a volume of 170 μL in a 96-well plate in Dulbecco's Modified Eagle's medium (DMEM) containing 4.5 g/L glucose, 50 U/mL penicillin, […], […], 2 mM L-glutamine, 10% (v/v) heat-inactivated fetal bovine serum with addition of 20 μL test compound in a serial dilution in the presence of final DMSO at 1% and 10 μL of 60 uM R848 in above DMEM, perform incubation under 37° C. in a CO2 incubator for 20 hrs. Then 20 μL of the supernatant from each well was incubated with […] Quanti-blue substrate solution at 37° C. for 2 hrs and the absorbance was read at 620-655 nm using a spectrophotometer. The signaling pathway that TLR8 activation leads to downstream NF-κB activation has been widely accepted, and therefore similar reporter assay was modified for evaluating TLR8 antagonist.
row,SMILES,IC50
1,"Cc1nn(C2CN(C[C@H]3CN(c4ccc(C#N)c5ncccc45)C[C@@H](C)O3)C2)c2c1CNCC2 [Example 12, 5-[(2R,6S)-2-methyl-6-[[3-(3-methyl-4,5,6,7-tetrahydropyrazolo[4,3-c]pyridin-1-yl)azetidin-1-yl]methyl]morpholin-4-yl]quinoline-8-carbonitrile]",0.044 µM
2,"Cc1c2c(nn1C1CN(C[C@H]3CN(c4ccc(C#N)c5ncccc45)C[C@@H](C)O3)C1)CCNC2 [Example 13, 5-[(2R,6S)-2-methyl-6-[[3-(3-methyl-4,5,6,7-tetrahydropyrazolo[4,3-c]pyridin-2-yl)azetidin-1-yl]methyl]morpholin-4-yl]quinoline-8-carbonitrile]",0.045 µM
3,"C[C@@H]1Cc2nn(C3CN(C[C@H]4CN(c5ccc(C#N)c6ncccc56)C[C@@H](C)O4)C3)cc2CN1 [Example 17, 5-[(2R,6S)-2-methyl-6-[[3-[(6R)-6-methyl-4,5,6,7-tetrahydropyrazolo[4,3-c]pyridin-2-yl]azetidin-1-yl]methyl]morpholin-4-yl]quinoline-8-carbonitrile]",0.018 µM
4,"CC(C)N1CCc2cnn(C3CN(C[C@H]4CN(c5ccc(C#N)c6ncccc56)C[C@@H](C)O4)C3)c2C1 [Example 8, 5-[(2S,6R)-2-[[3-(6-isopropyl-5,7-dihydro-4H-pyrazolo[3,4-c]pyridin-1-yl)azetidin-1-yl]methyl]-6-methyl-morpholin-4-yl]quinoline-8-carbonitrile]",0.005 µM
5,"C[C@@H]1CN(c2ccc(C#N)c3ncccc23)C[C@H](CN2CC(n3ncc4c3CCN[C@@H]4C)C2)O1 [Example 20, 5-[(2R,6S)-2-methyl-6-[[3-[(4R)-4-methyl-4,5,6,7-tetrahydropyrazolo[4,3-c]pyridin-1-yl]azetidin-1-yl]methyl]morpholin-4-yl]quinoline-8-carbonitrile]",0.028 µM
6,"Cc1c2c(nn1C1CN(C[C@H]3CN(c4ccc(C#N)c5ncccc45)C[C@@H](C)O3)C1)CNCC2 [Example 43, 5-[(2R,6S)-2-methyl-6-[[3-(3-methyl-4,5,6,7-tetrahydropyrazolo[3,4-c]pyridin-2-yl)azetidin-1-yl]methyl]morpholin-4-yl]quinoline-8-carbonitrile]",0.034 µM
7,"C[C@@H]1CN(c2ccc(C#N)c3ncccc23)C[C@H](CN2CC(n3cc4c(n3)CN[C@@H](C)C4)C2)O1 (single isomer, unassigned) [Example 29]",0.011 µM
8,"Cc1nn(C2CN(C[C@H]3CN(c4ccc(C#N)c5ncccc45)C[C@@H](C)O3)C2)c2c1CN(C)CC2 [Example 14, 5-[(2S,6R)-2-[[3-(3,5-dimethyl-6,7-dihydro-4H-pyrazolo[4,3-c]pyridin-1-yl)azetidin-1-yl]methyl]-6-methyl-morpholin-4-yl]quinoline-8-carbonitrile]",0.01 µM
9,"C[C@@H]1CN(c2ccc(C#N)c3ncccc23)C[C@H](CN2CC(n3cc4c(n3)CCNC4)C2)O1 [Example 2, 5-[(2R,6S)-2-methyl-6-[[3-(4,5,6,7-tetrahydropyrazolo[4,3-c]pyridin-2-yl)azetidin-1-yl]methyl]morpholin-4-yl]quinoline-8-carbonitrile]",0.019 µM
10,"C[C@@H]1CN(c2ccc(C#N)c3ncccc23)C[C@H](CN2CC(n3ncc4c3CNCC4)C2)O1 [Example 3, 5-[(2R,6S)-2-methyl-6-[[3-(4,5,6,7-tetrahydropyrazolo[3,4-c]pyridin-1-yl)azetidin-1-yl]methyl]morpholin-4-yl]quinoline-8-carbonitrile]",0.006 µM
11,"C[C@@H]1CN(c2ccc(C#N)c3ncccc23)C[C@H](CN2CC(n3ncc4c3CN[C@@H](C)C4)C2)O1 (single isomer, unassigned) [Example 27]",0.008 µM
12,"C[C@@H]1CN(c2ccc(C#N)c3ncccc23)C[C@H](CN2CC(n3cc4c(n3)[C@H](C)CNC4)C2)O1 (single isomer, unassigned) [Example 25]",0.011 µM
13,"C[C@@H]1CN(c2ccc(C#N)c3ncccc23)C[C@H](CN2CC(n3ncc4c3[C@H](C)NCC4)C2)O1 (single isomer, unassigned) [Example 32]",0.01 µM
14,"C[C@@H]1Cc2c(cnn2C2CN(C[C@H]3CN(c4ccc(C#N)c5ncccc45)C[C@@H](C)O3)C2)CN1 [Example 16, 5-[(2R,6S)-2-methyl-6-[[3-[(6R)-6-methyl-4,5,6,7-tetrahydropyrazolo[4,3-c]pyridin-1-yl]azetidin-1-yl]methyl]morpholin-4-yl]quinoline-8-carbonitrile]",0.016 µM
15,"C[C@@H]1CN(c2ccc(C#N)c3ncccc23)C[C@H](CN2CC(n3cc4c(n3)[C@@H](C)CNC4)C2)O1 (single isomer, unassigned) [Example 26]",0.012 µM
16,"C[C@@H]1CN(c2ccc(C#N)c3ncccc23)C[C@H](CN2CC(n3ncc4c3CCNC4)C2)O1 [Example 1, 5-[(2R,6S)-2-methyl-6-[[3-(4,5,6,7-tetrahydropyrazolo[4,3-c]pyridin-1-yl)azetidin-1-yl]methyl]morpholin-4-yl]quinoline-8-carbonitrile]",0.017 µM
17,"C[C@@H]1CN(c2ccc(C#N)c3ncccc23)C[C@H](CN2CC(n3ncc4c3[C@@H](C)NCC4)C2)O1 (single isomer, unassigned) [Example 31]",0.005 µM

# Continued, values first:
row,IC50,SMILES
1,0.013 µM,"C[C@@H]1CN(c2ccc(C#N)c3ncccc23)C[C@H](CN2CC(n3cc4c(n3)[C@@H](C)NCC4)C2)O1 (single isomer, unassigned) [Example 33]"
2,0.016 µM,"C[C@@H]1CN(c2ccc(C#N)c3ncccc23)C[C@H](CN2CC(n3cc4c(n3)[C@H](C)NCC4)C2)O1 (single isomer, unassigned) [Example 34]"
3,0.072 µM,"C[C@@H]1CN(c2ccc(C#N)c3ncccc23)C[C@H](CN2CC(n3cc4c(n3)CCN[C@@H]4C)C2)O1 [Example 21, 5-[(2R,6S)-2-methyl-6-[[3-[(4R)-4-methyl-4,5,6,7-tetrahydropyrazolo[4,3-c]pyridin-2-yl]azetidin-1-yl]methyl]morpholin-4-yl]quinoline-8-carbonitrile]"
4,0.044 µM,"C[C@@H]1CN(c2ccc(C#N)c3ncccc23)C[C@H](CN2CC(n3cc4c(n3)CCN[C@H]4C)C2)O1 [Example 23, 5-[(2R,6S)-2-methyl-6-[[3-[(4S)-4-methyl-4,5,6,7-tetrahydropyrazolo[4,3-c]pyridin-2-yl]azetidin-1-yl]methyl]morpholin-4-yl]quinoline-8-carbonitrile]"
5,0.022 µM,"C[C@@H]1CN(c2ccc(C#N)c3ncccc23)C[C@H](CN2CC(n3cc4c(n3)C[C@H](C)NC4)C2)O1 [Example 19, 5-[(2R,6S)-2-methyl-6-[[3-[(6S)-6-methyl-4,5,6,7-tetrahydropyrazolo[4,3-c]pyridin-2-yl]azetidin-1-yl]methyl]morpholin-4-yl]quinoline-8-carbonitrile]"
6,0.037 µM,"C[C@@H]1CN(c2ccc(C#N)c3ncccc23)C[C@H](CN2CC(n3ncc4c3CCN[C@H]4C)C2)O1 [Example 22, 5-[(2R,6S)-2-methyl-6-[[3-[(4S)-4-methyl-4,5,6,7-tetrahydropyrazolo[4,3-c]pyridin-1-yl]azetidin-1-yl]methyl]morpholin-4-yl]quinoline-8-carbonitrile]"
7,0.014 µM,"C[C@@H]1Cc2cn(C3CN(C[C@H]4CN(c5ccc(C#N)c6ncccc56)C[C@@H](C)O4)C3)nc2CN1 (single isomer, unassigned) [Example 30]"
